From PubChem BioAssay (NCI)
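Interpolation was linear, between the two tested concentrations surrounding the appropriate level; five concentrations were tested over 48 hours in 96-well plates. Definition used: TGI = concentration required for complete inhibition of growth.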

Legend:
Test in all cases: growth of human tumour cells (NCI), 48 h
[1] = tested on: CCRF-CEM leukemia
[2] = tested on: OVCAR-8 ovarian
[3] = tested on: SF-295 CNS
[4] = tested on: DMS 114 small cell lung
[5] = tested on: M14 melanoma
[6] = tested on: SK-OV-3 ovarian
[7] = tested on: KM20L2 colon
[8] = tested on: TK-10 renal
[9] = tested on: HCT-116 colon
[10] = tested on: ACHN renal
[11] = tested on: HCT-15 colon
[12] = tested on: U251 CNS
[13] = tested on: HOP-62 NSCLC
[14] = tested on: UACC-62 melanoma
[15] = tested on: RXF 393 renal
[16] = tested on: OVCAR-4 ovarian
[17] = tested on: SK-MEL-28 melanoma
[18] = tested on: CAKI-1 renal
[19] = tested on: NCI-H226 lung
[20] = tested on: UACC-257 melanoma
[21] = tested on: DMS 273 small cell lung
[22] = tested on: SN12C renal
[23] = tested on: SNB-78 CNS
[24] = tested on: SW-620 colon
[25] = tested on: EKVX NSCLC
[26] = tested on: M19-MEL melanoma
[27] = tested on: IGROV1 ovarian
[28] = tested on: HOP-18 NSCLC
[29] = tested on: HCC-2998 colon
[30] = tested on: RPMI-8226 leukemia
[31] = tested on: MALME-3M melanoma
[32] = tested on: NCI-H522 lung
[33] = tested on: A498 renal
[34] = tested on: NCI-H460 lung
[35] = tested on: HL-60(TB) leukemia
[36] = tested on: SNB-75 CNS
[37] = tested on: HOP-92 NSCLC
[38] = tested on: A549 NSCLC
[39] = tested on: HT29 colon
[40] = tested on: MOLT-4 leukemia
[41] = tested on: SNB-19 CNS
[42] = tested on: SK-MEL-2 melanoma
[43] = tested on: K-562 leukemia
[44] = tested on: OVCAR-3 ovarian
[45] = tested on: LXFL 529 NSCLC
[46] = tested on: DLD-1 colon
[47] = tested on: LOX IMVI melanoma
[48] = tested on: NCI-H23 lung
[49] = tested on: SF-268 CNS
[50] = tested on: SK-MEL-5 melanoma
[51] = tested on: OVCAR-5 ovarian
[52] = tested on: UO-31 renal
[53] = tested on: COLO 205 colon
[54] = tested on: 786-0 renal
[55] = tested on: KM12 colon
[56] = tested on: SF-539 CNS
[57] = tested on: SR leukemia
[58] = tested on: XF 498 CNS

CCOC(=O)/C=C1/Oc2ccccc2C1(C)O (stereo not given)
TGI [1]: > 100 µM
TGI [2]: > 100 µM
TGI [3]: > 100 µM
TGI [4]: > 100 µM
TGI [5]: > 100 µM
TGI [6]: > 100 µM
TGI [7]: > 100 µM
TGI [8]: > 100 µM
TGI [9]: > 100 µM
TGI [10]: > 100 µM
TGI [11]: > 100 µM
TGI [12]: > 100 µM
TGI [13]: > 100 µM
TGI [14]: > 100 µM
TGI [15]: > 100 µM
TGI [16]: > 100 µM
TGI [17]: > 100 µM
TGI [18]: > 100 µM
TGI [19]: > 100 µM
TGI [20]: > 100 µM
TGI [21]: > 100 µM
TGI [22]: > 100 µM
TGI [23]: > 100 µM
TGI [24]: > 100 µM
TGI [25]: > 100 µM
TGI [26]: > 100 µM
TGI [27]: > 100 µM
TGI [28]: > 100 µM
TGI [29]: > 100 µM
TGI [30]: > 100 µM
TGI [31]: > 100 µM
TGI [32]: > 100 µM
TGI [33]: > 100 µM
TGI [34]: > 100 µM
TGI [35]: > 100 µM
TGI [36]: > 100 µM
TGI [37]: > 100 µM
TGI [38]: > 100 µM
TGI [39]: > 100 µM
TGI [40]: > 100 µM
TGI [41]: > 100 µM
TGI [42]: > 100 µM
TGI [43]: > 100 µM
TGI [44]: > 100 µM
TGI [45]: > 100 µM
TGI [46]: > 100 µM
TGI [47]: > 100 µM
TGI [48]: > 100 µM
TGI [49]: > 100 µM
TGI [50]: > 100 µM
TGI [51]: > 100 µM
TGI [52]: > 100 µM
TGI [53]: > 100 µM
TGI [54]: > 100 µM
TGI [55]: > 100 µM

CC(=O)O[C@]1(C)CCC2C(C)C(=O)OC2C2C(C)[C@@H](O)CC21 (stereo not given in full)
TGI [1]: > 100 µM
TGI [2]: > 100 µM
TGI [3]: > 100 µM
TGI [5]: 47.9 µM
TGI [6]: > 100 µM
TGI [7]: 71.2 µM
TGI [8]: > 100 µM
TGI [9]: 50.8 µM
TGI [10]: > 100 µM
TGI [11]: 32.5 µM
TGI [12]: > 100 µM
TGI [13]: 45.2 µM
TGI [14]: 89.5 µM
TGI [15]: 82.5 µM
TGI [16]: > 100 µM
TGI [17]: > 100 µM
TGI [18]: > 100 µM
TGI [19]: > 100 µM
TGI [20]: > 100 µM
TGI [21]: 54.5 µM
TGI [22]: > 100 µM
TGI [23]: > 100 µM
TGI [24]: 31.2 µM
TGI [25]: > 100 µM
TGI [26]: 57.4 µM
TGI [27]: > 100 µM
TGI [28]: > 100 µM
TGI [29]: 58 µM
TGI [30]: 60.1 µM
TGI [31]: > 100 µM
TGI [32]: 34.4 µM
TGI [33]: > 100 µM
TGI [34]: > 100 µM
TGI [35]: 34.2 µM
TGI [36]: > 100 µM
TGI [37]: 91.3 µM
TGI [56]: > 100 µM
TGI [38]: > 100 µM
TGI [39]: > 100 µM
TGI [41]: > 100 µM
TGI [42]: 58.3 µM
TGI [43]: 54.9 µM
TGI [44]: 47.3 µM
TGI [45]: 59 µM
TGI [46]: > 100 µM
TGI [47]: 34.2 µM
TGI [48]: > 100 µM
TGI [49]: > 100 µM
TGI [50]: 89.7 µM
TGI [57]: > 100 µM
TGI [51]: > 100 µM
TGI [52]: > 100 µM
TGI [53]: 36.2 µM
TGI [54]: > 100 µM
TGI [55]: > 100 µM

CCOC(=O)c1c(NNc2ccccc2)nc2ccccc2c1-c1ccccc1
TGI [1]: 58.3 µM
TGI [2]: 82.2 µM
TGI [3]: > 100 µM
TGI [4]: 32.9 µM
TGI [5]: 80.8 µM
TGI [6]: > 100 µM
TGI [7]: > 100 µM
TGI [8]: > 100 µM
TGI [9]: 47.2 µM
TGI [10]: > 100 µM
TGI [11]: > 100 µM
TGI [12]: > 100 µM
TGI [13]: 59.3 µM
TGI [14]: 32 µM
TGI [15]: 86.3 µM
TGI [16]: > 100 µM
TGI [17]: > 100 µM
TGI [18]: > 100 µM
TGI [19]: 92 µM
TGI [20]: > 100 µM
TGI [21]: > 100 µM
TGI [22]: 92.3 µM
TGI [23]: 88.6 µM
TGI [24]: > 100 µM
TGI [25]: > 100 µM
TGI [26]: 52.5 µM
TGI [27]: > 100 µM
TGI [28]: 77.3 µM
TGI [29]: > 100 µM
TGI [30]: 47.3 µM
TGI [31]: 64.3 µM
TGI [32]: 56.8 µM
TGI [33]: > 100 µM
TGI [34]: 67.3 µM
TGI [35]: 44.3 µM
TGI [36]: 93.2 µM
TGI [37]: > 100 µM
TGI [56]: 74.9 µM
TGI [38]: 95.7 µM
TGI [39]: > 100 µM
TGI [40]: 42.9 µM
TGI [41]: > 100 µM
TGI [42]: 32.1 µM
TGI [43]: 77.9 µM
TGI [44]: 67 µM
TGI [45]: > 100 µM
TGI [46]: > 100 µM
TGI [47]: 40.1 µM
TGI [48]: 50.9 µM
TGI [49]: 91.9 µM
TGI [50]: 35.2 µM
TGI [57]: 56.4 µM
TGI [51]: > 100 µM
TGI [52]: 66.3 µM
TGI [53]: > 100 µM
TGI [54]: > 100 µM
TGI [55]: > 100 µM

Cc1ccc(-c2cc(=O)c3cc4c(cc3[nH]2)OCO4)cc1
TGI [1]: > 100 µM
TGI [2]: > 100 µM
TGI [3]: 11.6 µM
TGI [4]: > 100 µM
TGI [5]: > 22 µM
TGI [6]: 28.9 µM
TGI [7]: 3.43 µM
TGI [8]: > 60.6 µM
TGI [9]: > 100 µM
TGI [10]: > 100 µM
TGI [11]: 6.64 µM
TGI [12]: 10.5 µM
TGI [13]: 20.5 µM
TGI [14]: > 39.1 µM
TGI [15]: 9.94 µM
TGI [16]: > 100 µM
TGI [17]: > 100 µM
TGI [18]: > 100 µM
TGI [19]: 8.66 µM
TGI [20]: > 100 µM
TGI [21]: > 25 µM
TGI [22]: > 100 µM
TGI [24]: > 100 µM
TGI [25]: > 100 µM
TGI [26]: > 100 µM
TGI [27]: > 100 µM
TGI [28]: 35.2 µM
TGI [29]: 5.56 µM
TGI [30]: > 100 µM
TGI [31]: > 33.4 µM
TGI [32]: 4.83 µM
TGI [33]: 10.5 µM
TGI [34]: 3.82 µM
TGI [35]: 2.77 µM
TGI [36]: 35 µM
TGI [37]: 71.2 µM
TGI [56]: 4.54 µM
TGI [38]: > 63.4 µM
TGI [39]: > 100 µM
TGI [40]: > 42.6 µM
TGI [41]: > 100 µM
TGI [42]: 14.2 µM
TGI [43]: > 100 µM
TGI [44]: > 100 µM
TGI [45]: 21.8 µM
TGI [46]: > 100 µM
TGI [47]: > 100 µM
TGI [48]: 3.29 µM
TGI [49]: > 72.1 µM
TGI [50]: 5.6 µM
TGI [57]: > 40.4 µM
TGI [51]: > 82.3 µM
TGI [52]: > 100 µM
TGI [54]: 14.6 µM
TGI [55]: > 100 µM

COc1ccccc1N=NC(C(=O)c1ccccc1)C(=O)c1ccccc1
TGI [1]: 60 µM
TGI [2]: > 100 µM
TGI [3]: 87.6 µM
TGI [4]: 40.5 µM
TGI [5]: 31.6 µM
TGI [6]: 89.4 µM
TGI [7]: 58.2 µM
TGI [8]: > 100 µM
TGI [9]: 28.6 µM
TGI [10]: 83.6 µM
TGI [11]: 47.6 µM
TGI [12]: > 100 µM
TGI [13]: 52.1 µM
TGI [14]: 52.3 µM
TGI [16]: 74.2 µM
TGI [17]: > 100 µM
TGI [18]: 77.3 µM
TGI [19]: 35.9 µM
TGI [20]: 89.2 µM
TGI [21]: 57.9 µM
TGI [22]: 53.1 µM
TGI [24]: > 100 µM
TGI [25]: 67.8 µM
TGI [26]: 41.3 µM
TGI [27]: > 100 µM
TGI [58]: 53.5 µM
TGI [29]: 70.4 µM
TGI [30]: 58.7 µM
TGI [31]: 88.9 µM
TGI [32]: 47 µM
TGI [33]: > 100 µM
TGI [34]: 82.2 µM
TGI [35]: 33.7 µM
TGI [36]: 82.3 µM
TGI [56]: > 100 µM
TGI [38]: 78.3 µM
TGI [39]: 82.3 µM
TGI [40]: 60.4 µM
TGI [41]: 70.1 µM
TGI [42]: 53.4 µM
TGI [43]: > 100 µM
TGI [44]: > 100 µM
TGI [45]: > 100 µM
TGI [46]: 54.9 µM
TGI [47]: 51.1 µM
TGI [48]: 68.1 µM
TGI [49]: > 100 µM
TGI [50]: 54.5 µM
TGI [51]: 71.5 µM
TGI [52]: 37.3 µM
TGI [53]: > 100 µM
TGI [54]: > 100 µM
TGI [55]: > 100 µM
